Data set [1] relates to MCF-7 breast cancer cell line. Put plainly: Antiproliferative assay, MCF-7. The following applies: Homo sapiens, MCF7; MCF-7 breast cancer cells; read-out: Antiproliferative activity IC50 ± SEM, MCF-7. In kind it is cell-based.
For data set [2], the system named is Panc-1 pancreatic cancer cell line. Kind of data set: Antiproliferative assay, Panc-1. It counts as cell-based. As to conditions: Homo sapiens; Panc-1 pancreatic cancer cells; read-out: Antiproliferative activity IC50 ± SEM, Panc-1.
A short description of data set [3]: Cell viability assay (MTT) on MCF-10A normal cells. It counts as cell-based. As to conditions: human, MCF-10A mammary gland epithelial normal cells, MCF-10A cells, four-day incubation. On the procedure: The impact of compounds 3a–h and 5a–d on cell viability was evaluated using the human mammary (MCF-10A) gland epithelium normal cell line. The MTT assay was used to evaluate the cell viability of 3a–h and 5a–d after a four-day incubation period on MCF-10A cells.[46] Refer to Appendix A for more details.
The effect of new compounds 3a–h and 5a–d on cell viability was evaluated using the MCF-10A (human mammary gland epithelium) normal cell line.
4.2. Biological evaluation
4.2.1 Cell Viability assay (MTT assay)
MTT assay was performed to investigate the effect of the synthesized compounds on mammary epithelial cells (MCF-10A). The cells were propagated in medium consisting of Ham's F-12 medium/ Dulbecco's modified Eagle's medium (DMEM) (1:1) supplemented with 10% foetal calf serum, 2 mM glutamine, insulin (10 μg/mL), hydrocortisone (500 ng/mL) and epidermal growth factor (20 ng/mL). Trypsin ethylenediamine tetra acetic acid (EDTA) was used to passage the cells after every 2-3 days. 96-well flat-bottomed cell culture plates were used to seed the cells at a density of 10^4 cells mL-1. The medium was aspirated from all the wells of culture plates after 24 h followed by the addition of synthesized compounds (in 200 μL medium to yield a final concentration of 0.1% (v/v) dimethyl sulfoxide) into individual wells of the plates. Four wells were designated to a single compound. The plates were allowed to incubate at 37°C for 96 h. Afterwards, the medium was aspirated and 3-[4,5-dimethylthiazol-2-yl]-2,5-diphenyltetrazolium bromide (MTT) (0.4 mg/mL) in medium was added to each well and subsequently incubated for 3 h. The medium was aspirated and 150 μL dimethyl sulfoxide (DMSO) was added to each well. The plates were vortexed followed by the measurement of absorbance at 540 nm on a microplate reader. The results were presented as inhibition (%) of proliferation in contrast to controls comprising 0.1% DMSO.

The subject of data set [4] is A-549 lung cancer cell line. Put plainly: Antiproliferative assay, A-549. It counts as cell-based. The following applies: Homo sapiens, A549; A-549 lung cancer cells; read-out: Antiproliferative activity IC50 ± SEM, A-549.
The test system of data set [5] is four human cancer cell lines (A-549, MCF-7, Panc-1, HT-29). Put plainly: Antiproliferative assay, average over four cancer cell lines. It counts as cell-based. The following applies: average IC50 over the four cancer cell lines.
The test system of data set [6] is HT-29 colon cancer cell line. Put plainly: Antiproliferative assay, HT-29. It counts as cell-based. As to conditions: Homo sapiens; HT-29 colon cancer cells; read-out: Antiproliferative activity IC50 ± SEM, HT-29.

For orientation: IC50 means the concentration at which inhibition is half-maximal. The term viability denotes the share of living cells, or the viability signal relative to a control. For orientation: GI50 means the concentration at which growth is held to half of that of the control. Higher therefore signals lower sensitivity of the cells. One may read the melting point as the temperature, or range, at which the solid turns liquid.

The molecule `O=c1[nH]c2ccccc2c(O)c1/C=N/c1nc(-c2ccccc2)n[nH]1` [Compound 3a, (E) 4-hydroxy-3-(((3-phenyl-1H-1,2,4-triazol-5-yl)imino)methyl)quinolin-2(1H)-one] returned a melting point of 310 to 312 °C. Moreover, the IC50 in data set [1] was 0.069 ± 0.006 µM. The IC50 in data set [2] was 0.074 ± 0.007 µM. Also, in data set [3], the viability at 96 h, 50 µM is 89%. The IC50 in data set [4] came out at 0.072 ± 0.007 µM. Growth in data set [5] (Homo sapiens) was halved (GI50) at 0.072 µM. Besides, the IC50 in data set [6] was 0.074 ± 0.007 µM.

As to `Cc1ccc2[nH]c(=O)c(/C=N/c3nc(-c4ccccc4)n[nH]3)c(O)c2c1` [Compound 3b, (E) 4-hydroxy-6-methyl-3-(((3-phenyl-1H-1,2,4-triazol-5-yl)imino)methyl)quinolin-2(1H)-one], the melting point is 325 to 327 °C. For the same molecule, the IC50 in data set [1] was determined as 0.067 ± 0.006 µM. The IC50 in data set [2] was 0.07 ± 0.006 µM. For the same molecule, the viability at 96 h, 50 µM in data set [3] worked out at 90%. For the same molecule, the IC50 in data set [4] came out at 0.07 ± 0.006 µM. Also, in data set [5] (Homo sapiens), the GI50 was 0.07 µM. Besides, the IC50 in data set [6] is 0.071 ± 0.006 µM.

The molecule `COc1ccc2[nH]c(=O)c(/C=N/c3nc(-c4ccccc4)n[nH]3)c(O)c2c1` [Compound 3c, (E)-4-hydroxy-6-methoxy-3-(((3-phenyl-1H-1,2,4-triazol-5-yl)imino)methyl) quinolin-2(1H)-one] gave a melting point of 330 to 332 °C. In data set [1], the IC50 is 0.046 ± 0.004 µM. The half-maximal inhibitory concentration (IC50) in data set [2] was determined as 0.054 ± 0.005 µM. The molecule further returned a viability at 96 h, 50 µM in data set [3] of 87%. For the same molecule, the 50% inhibitory concentration (IC50) in data set [4] stood at 0.05 ± 0.005 µM. This molecule had a GI50 in data set [5] (Homo sapiens) of 0.051 µM. In addition, in data set [6], the IC50 was 0.052 ± 0.004 µM.

The molecule `Cn1c(=O)c(/C=N/c2nc(-c3ccccc3)n[nH]2)c(O)c2ccccc21` [Compound 3d, (E)-4-hydroxy-1-methyl-3-(((3-phenyl-1H-1,2,4-triazol-5-yl)imino)methyl)quinolin-2(1H)-one] registered a melting point of 295 to 297 °C. In data set [1], the IC50 was 0.074 ± 0.007 µM. In addition, the IC50 in data set [2] was 0.076 ± 0.007 µM. For the same molecule, the viability at 96 h, 50 µM in data set [3] was found to be 89%. For the same molecule, the 50% inhibitory concentration (IC50) in data set [4] turned out to be 0.076 ± 0.007 µM. It took 0.076 µM to inhibit growth in data set [5] (Homo sapiens) by half (GI50). Further, the IC50 in data set [6] was 0.077 ± 0.007 µM.

Turning to `Cc1ccc2[nH]c(=O)c(/C=N/c3nc(-c4ccncc4)n[nH]3)c(O)c2c1` [Compound 3f, (E)-4-hydroxy-6-methyl-3-(((3-(pyridin-4-yl)-1H-1,2,4-triazol-5-yl)imino)methyl) quinolin-2(1H)-one], the half-inhibitory concentration (IC50) is 0.059 ± 0.005 µM in data set [1], 0.065 ± 0.006 µM in data set [2], 0.062 ± 0.006 µM in data set [4] and 0.064 ± 0.006 µM in data set [6]. Moreover, the viability at 96 h, 50 µM in data set [3] is 90%. The GI50 in data set [5] (Homo sapiens) amounted to 0.063 µM.

For the molecule `COc1ccc2[nH]c(=O)c(/C=N/c3nc(-c4ccncc4)n[nH]3)c(O)c2c1` [Compound 3g, (E)-4-hydroxy-6-methoxy-3-(((3-(pyridin-4-yl)-1H-1,2,4-triazol-5-yl)imino)methyl) quinol-in-2(1H)-one], the IC50 was 0.06 ± 0.006 µM in data set [1], 0.064 ± 0.006 µM in data set [2], 0.064 ± 0.006 µM in data set [4] and 0.066 ± 0.006 µM in data set [6]. In addition, the viability at 96 h, 50 µM in data set [3] was determined as 89%. Also, the GI50 worked out at 0.082 µM in data set [5] (Homo sapiens) and 0.064 µM in data set [5].

`COc1ccc2[nH]c(=O)c(C=Nc3ccc(NS(=O)(=O)c4ncccn4)cc3)c(O)c2c1` [Compound 5c, N-(4-(((4-hydroxy-6-methoxy-2-oxo-1,2-dihydroquinolin-3-yl)methylene)amino)phenyl)pyrimidine-2-sulfonamide]: the IC50 turned out to be 0.049 ± 0.004 µM in data set [1], 0.054 ± 0.005 µM in data set [2], 0.053 ± 0.005 µM in data set [4] and 0.055 ± 0.005 µM in data set [6]. Further, in data set [3], the viability at 96 h, 50 µM was 86%. In data set [5] (Homo sapiens), this molecule displayed a GI50 of 0.053 µM.

Values taken from publication PMC11492426, “Design, synthesis, and biological evaluation of novel quinoline-based EGFR/HER-2 dual-target inhibitors as potential anti-tumor agents” (RSC Advances, 2024).
